{"source": "patent US20080206819A1", "about": "“Intensified Perfusion Production Method” (priority 2006, published 2008)", "assay_type_in_all_cases": "cell-based", "key": {"[1]": {"test_system": "Chinese hamster ovary (CHO) cell line", "assay": "Cell viability, traditional perfusion vs. RaMP (trypan blue staining)", "method": "The production cell line used for all experiments is a CHO (Chinese Hamster Ovary) cell-derived cell line transfected with the desired construct to produce a recombinant IgG1 protein. For all of the experiments, the cell line was grown in the RBM12.1 media under selective pressure (100 μg/ml Hygromycin B and 500 nM methotrexate). The cells were seeded in at a density of 4×10^5 to 1×10^6 cells per milliliter, depending on bioreactor size. pH was kept at 7.1±0.05 and temperature was kept at 37° C.±0.5. The perfusion rate for both traditional perfusion and the methods of the invention (RaMP) was 1.0 to 2.0 volumes/day. The cell retention devices used were the hollow fiber system and/or the cell settler system. […] The cell settler system (retention by gravity) seem to overcome this problem. Sodium butyrate was introduced into the bioreactor after the cells reached the desired cell density (around 20 million cells/ml). Once sodium butyrate was introduced into the perfusion system, the cells were kept at that sodium butyrate condition until the next higher dose. This gradual ramping of sodium butyrate concentration was continued until the desired final concentration of sodium butyrate was reached. Once the desired sodium butyrate concentration is reached, the cells are grown in media in media containing the desired sodium butyrate concentration for the rest of the production run.\nThe mammalian host cell line used is a Chinese hamster ovary (CHO) cell line. This cell line has been transfected with the light and heavy chains of a chimeric IgG1 monoclonal antibody. The cells were grown in RBM12.1 medium under selective pressure (100 μg/ml Hygromycin B and 500 nM methotrexate (MTX). The medium used for this example contained the components in Table 1. Additional factors such as 10 μg/ml recombinant human insulin and 0.1% F68 are also added to the medium.\nDuring the growth period, the cultures were controlled at pH 7.1±0.05 by the use of CO2 gas (acid) and/or Na2CO3 (base). Temperature was controlled at 37°±0.5 Celsius. Oxygen level was maintained at about 100% air saturation. For the initial growth period, CO2 level was maintained at 5%. When the cell density reached […] cells/ml, CO2 gas to the culture was turned off. The osmolality of the culture was maintained between 325 to 400 mOsm with minimal osmolality drift.\nIn a typical production schedule, 5×10^5 to 1×10^6 cells were inoculated into the cell culture bioreactor. 1 to 1.5 volumes of media was perfused daily. Cell density and viability was monitored by pulling a sample from the bioreactor and counted using trypan blue staining for live/dead cells.\nTen days after inoculation, the production period was started with the gradual addition of sodium butyrate (Na butyrate) into the RaMP cultures. 1.5 volume of RBM12.1 medium with 1 mM Na butyrate was perfused into the biorector on day 1 of the production period. This concentration of Na butyrate was kept in the bioreactor using the RaMP method for the duration of the production period. For cells in the traditional perfusion method, RBM12.1 media without Na butyrate was perfused into the bioreactor at the same perfusion rate as used in the RaMP method. Cell viability was monitored daily."}, "[2]": {"test_system": "Chinese hamster ovary (CHO) cell line", "assay": "Effect of increasing sodium butyrate concentrations on cell viability in perfusion culture", "method": "Additional experiments using higher concentrations of sodium butyrate induction were also performed. The cells were seeded and grown similar to the conditions described above. On day 7, […] sodium butyrate was introduced into the perfusion medium. On day 10, the sodium butyrate concentration was increased to 1.0 mM. On day 12, the sodium butyrate concentration was increased to 2.0 mM. On day 14, the sodium butyrate concentration was increased to 4.0 mM and on day 17, the sodium butyrate concentration was increased to 8.0 mM. Throughout the experiment, cell viability was over 85% and the viable cell concentration reached over 4.8×10^7 cells/ml."}, "[3]": {"test_system": "CHO (Chinese Hamster Ovary) cell-derived cell line", "assay": "Cell viability and cell density, Example 5 (RaMP)", "method": "Cells were seeded at 5×10^5 cells/ml and were allowed to grow in the bioreactor for 6 days before the first harvest of recombinant protein on day 7. Conditions for this growth period are similar to those described in Example 1 above. Cells were grown in RBM12.1 media with a perfusion rate of 1 to 1.5 v/day. 1 mM sodium butyrate (final concentration) was added to perfusion medium and was perfused into the bioreactor on day 8. […] 2 mM sodium butyrate (final concentration) was added to the perfusion media and was perfused into the bioreactor on day 11. Cell viability was monitored daily by pulling samples from the bioreactor and trypan blue live/dead staining. Over the production run, the cell density reached upwards of 4.5×10^7 cells/ml. Using the RaMP method, the cell viability remained above 85% viable cells even with the sustained concentration of 2 mM sodium butyrate in the media. The average daily recombinant protein production reached over 0.6 g/L/day."}}}
{"smiles": "CCCC(=O)[O-].[Na+]", "note": "[sodium butyrate]", "values": [{"measurement": "% viable cells (RaMP)", "setting": "[1]; 1 mM Na butyrate perfused from start of production period, day 10", "value": 97, "unit": "%"}, {"measurement": "% viable cells (RaMP)", "setting": "[1]; 1 mM Na butyrate, day 11", "value": 97.6, "unit": "%"}, {"measurement": "% viable cells (RaMP)", "setting": "[1]; 1 mM Na butyrate, day 12", "value": 96.4, "unit": "%"}, {"measurement": "% viable cells (RaMP)", "setting": "[1]; 1 mM Na butyrate, day 13", "value": 97.1, "unit": "%"}, {"measurement": "% viable cells (RaMP)", "setting": "[1]; 1 mM Na butyrate, day 14", "value": 95.7, "unit": "%"}, {"measurement": "% viable cells (RaMP)", "setting": "[1]; 1 mM Na butyrate, day 15", "value": 96.1, "unit": "%"}, {"measurement": "% viable cells (RaMP)", "setting": "[1]; 1 mM Na butyrate, day 16", "value": 97.2, "unit": "%"}, {"measurement": "% viable cells (RaMP)", "setting": "[1]; 1 mM Na butyrate, day 17", "value": 96.4, "unit": "%"}, {"measurement": "% viable cells (RaMP)", "setting": "[1]; 1 mM Na butyrate, day 18", "value": 97, "unit": "%"}, {"measurement": "% viable cells (RaMP)", "setting": "[1]; 1 mM Na butyrate, day 19", "value": 96.9, "unit": "%"}, {"measurement": "% viable cells (RaMP)", "setting": "[1]; 1 mM Na butyrate, day 20", "value": 95.8, "unit": "%"}, {"measurement": "cell viability", "setting": "[1]; RaMP method, 1 mM Na butyrate, production period", "value": "sustained high cell viability"}, {"measurement": "% viable cells", "setting": "[2]; Na butyrate 0.5 mM, day 7", "value": 97.3, "unit": "%"}, {"measurement": "% viable cells", "setting": "[2]; Na butyrate 0.5 mM, day 8", "value": 97.8, "unit": "%"}, {"measurement": "% viable cells", "setting": "[2]; Na butyrate 0.5 mM, day 9", "value": 97.8, "unit": "%"}, {"measurement": "% viable cells", "setting": "[2]; Na butyrate 1.0 mM, day 10", "value": 97.8, "unit": "%"}, {"measurement": "% viable cells", "setting": "[2]; Na butyrate 1.0 mM, day 11", "value": 96.6, "unit": "%"}, {"measurement": "% viable cells", "setting": "[2]; Na butyrate 2.0 mM, day 12", "value": 97.2, "unit": "%"}, {"measurement": "% viable cells", "setting": "[2]; Na butyrate 2.0 mM, day 13", "value": 95.9, "unit": "%"}, {"measurement": "% viable cells", "setting": "[2]; Na butyrate 4.0 mM, day 14", "value": 97, "unit": "%"}, {"measurement": "% viable cells", "setting": "[2]; Na butyrate 4.0 mM, day 15", "value": 96.7, "unit": "%"}, {"measurement": "% viable cells", "setting": "[2]; Na butyrate 4.0 mM, day 16", "value": 94.2, "unit": "%"}, {"measurement": "% viable cells", "setting": "[2]; Na butyrate 8.0 mM, day 17", "value": 94.7, "unit": "%"}, {"measurement": "% viable cells", "setting": "[2]; Na butyrate 8.0 mM, day 18", "value": 93.3, "unit": "%"}, {"measurement": "% viable cells", "setting": "[2]; Na butyrate 8.0 mM, day 19", "value": 91.5, "unit": "%"}, {"measurement": "% viable cells", "setting": "[2]; Na butyrate 8.0 mM, day 20", "value": 88.1, "unit": "%"}, {"measurement": "cell viability", "setting": "[2]; sodium butyrate stepped 0.5 to 8.0 mM, day 7 to day 17, throughout the experiment", "value": "over 85%"}, {"measurement": "viable cell concentration", "setting": "[2]; sodium butyrate stepped 0.5 to 8.0 mM, reached", "value": "over 4.8×10^7 cells/ml"}, {"measurement": "cell density", "setting": "[3]; RaMP, 1 mM then 2 mM sodium butyrate, over the production run", "value": "> 4.5×10^7 cells/ml"}, {"measurement": "cell viability", "setting": "[3]; after 1 mM sodium butyrate perfused on day 8", "value": "≥ 85", "unit": "%"}, {"measurement": "cell viability", "setting": "[3]; sustained concentration of 2 mM sodium butyrate in the media (from day 11)", "value": "above 85%"}]}
